Data: patent US8304427B2, “Acylthiourea compound or salt thereof, and use thereof” (Taiho Pharmaceutical Co., Ltd., priority 2008, dated 2012)
pIC50: −log10 of the molar value. Counter-ions that a name gives are not always drawn.

Columns and labels:
c-Met [1] = target: T1, c-Met (Homo sapiens, UniProt P08581); test: c-Met inhibitory assay using DeskTop Profiler (Method B); format: biochemical; parameters: made in house; details: ATP 43 μM
Description: Method B) c-Met Inhibitory Assay Using DeskTop Profiler
A dephosphorylation enzyme inhibitor cocktail (PhosSTOP, #4906837, product of Roche) and a protease inhibitor cocktail (Complete, Mini, EDTA-free, #1836170; product of Roche) were added to a reaction buffer (100 mM HEPES (pH: 7.5), 10 mM MgCl2, 0.003% Brij-35, 0.04% Tween, and 1 mM DTT). In the presence of the compound of the present invention, recombinant c-Met (purified product of Taiho Pharmaceutical Co., Ltd.), fluorescence-labeled c-Met substrate peptide (FL-Peptide 2, #760346, Caliper Life Sciences) (final concentration: 1.5 μM), and ATP (final concentration: 43 μM) were added thereto, and the mixture was allowed to react at 28° C. for 90 minutes. EDTA was added to the reaction mixture to a final concentration of 10 mM, to thereby terminate reaction. By use of DeskTop Profiler (#119900, Caliper Life Sciences), each fluorescence intensity of the substrate and that of the phosphorylated product was determined, whereby the amount of the formed phosphorylated product was determined. The compound concentration that realizes 50% inhibition of formation of phosphorylated product was defined as IC50 (μM), and the results are shown in the following Tables.
Target sequence in this assay (P08581 25-1390): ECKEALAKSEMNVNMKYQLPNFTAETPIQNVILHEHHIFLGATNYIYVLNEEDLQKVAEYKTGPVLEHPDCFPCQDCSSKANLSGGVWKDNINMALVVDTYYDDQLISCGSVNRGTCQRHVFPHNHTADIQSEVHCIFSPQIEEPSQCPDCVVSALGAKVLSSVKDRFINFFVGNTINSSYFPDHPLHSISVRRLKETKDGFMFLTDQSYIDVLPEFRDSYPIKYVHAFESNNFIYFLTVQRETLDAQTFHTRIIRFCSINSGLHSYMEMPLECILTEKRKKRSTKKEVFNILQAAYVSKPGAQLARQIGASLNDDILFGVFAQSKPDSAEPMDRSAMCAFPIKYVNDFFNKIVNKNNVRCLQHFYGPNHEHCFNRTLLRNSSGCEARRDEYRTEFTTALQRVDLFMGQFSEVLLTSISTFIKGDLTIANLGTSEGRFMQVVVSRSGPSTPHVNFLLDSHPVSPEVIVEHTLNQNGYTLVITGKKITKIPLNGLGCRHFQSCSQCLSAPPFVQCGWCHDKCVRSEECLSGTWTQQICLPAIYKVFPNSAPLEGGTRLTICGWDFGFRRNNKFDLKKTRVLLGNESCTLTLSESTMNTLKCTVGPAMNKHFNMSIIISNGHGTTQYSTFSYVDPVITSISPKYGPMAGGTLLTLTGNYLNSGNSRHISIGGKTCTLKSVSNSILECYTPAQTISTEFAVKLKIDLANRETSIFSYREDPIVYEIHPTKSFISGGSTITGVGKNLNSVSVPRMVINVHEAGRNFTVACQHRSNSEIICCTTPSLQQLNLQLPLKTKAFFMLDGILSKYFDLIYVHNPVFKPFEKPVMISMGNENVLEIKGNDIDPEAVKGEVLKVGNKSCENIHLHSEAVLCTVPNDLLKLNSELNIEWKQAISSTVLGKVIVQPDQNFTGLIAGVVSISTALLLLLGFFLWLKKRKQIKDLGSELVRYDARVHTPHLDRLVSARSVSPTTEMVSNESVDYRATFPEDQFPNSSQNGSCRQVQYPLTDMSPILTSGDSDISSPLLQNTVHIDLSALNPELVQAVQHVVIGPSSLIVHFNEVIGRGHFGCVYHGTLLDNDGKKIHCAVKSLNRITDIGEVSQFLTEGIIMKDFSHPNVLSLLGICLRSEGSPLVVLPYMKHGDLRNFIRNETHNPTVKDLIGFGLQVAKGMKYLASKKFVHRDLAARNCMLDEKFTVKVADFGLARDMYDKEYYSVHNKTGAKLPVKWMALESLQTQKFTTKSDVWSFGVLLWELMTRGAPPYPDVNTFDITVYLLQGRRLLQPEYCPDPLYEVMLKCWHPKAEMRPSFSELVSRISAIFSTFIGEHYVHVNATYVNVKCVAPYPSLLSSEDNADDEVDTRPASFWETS

c-Met [2] = target: T1, c-Met; test: c-Met inhibitory assay using AlphaScreen (Method A); format: biochemical; parameters: purchased Carna bio Co., Ltd 08-051; details: ATP 20 μM
Description: Inhibitory activity of compounds against c-Met kinase was determined through the following procedures. Method A) c-Met inhibitory assay using AlphaScreen™
A biotinylated peptide including a phosphorylated site of Pyk2 (Tyr402), which is reported as a bio-substrate in Clin. Cancer Res. vol. […] The mixture was allowed to react at room temperature for 20 minutes. EDTA was added to the reaction mixture to a final concentration of 50 mM, to thereby terminate reaction. […] The reaction was done for one hour at room temperature. Thereafter, the fluorescence intensity from the reaction mixture was measured using a multi-label counter (EnVision™, Perkin Elmer).
Target sequence in this assay (P08581 956-1390 limits assumed): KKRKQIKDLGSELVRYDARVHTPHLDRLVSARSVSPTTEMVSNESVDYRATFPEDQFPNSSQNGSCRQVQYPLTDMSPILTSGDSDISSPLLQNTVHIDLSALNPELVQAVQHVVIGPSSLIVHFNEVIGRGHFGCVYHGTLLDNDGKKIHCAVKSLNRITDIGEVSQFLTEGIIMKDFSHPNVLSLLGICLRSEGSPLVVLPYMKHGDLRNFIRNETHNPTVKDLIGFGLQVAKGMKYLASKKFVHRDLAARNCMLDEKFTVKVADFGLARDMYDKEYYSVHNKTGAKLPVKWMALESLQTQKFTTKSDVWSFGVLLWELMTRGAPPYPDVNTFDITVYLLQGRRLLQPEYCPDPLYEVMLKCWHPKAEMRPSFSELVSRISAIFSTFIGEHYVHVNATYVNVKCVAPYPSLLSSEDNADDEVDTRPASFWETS

pIC50 (c-Met [1])	pIC50 (c-Met [2])	Structure (SMILES)
7.35		COc1cc2nccc(Oc3ccc(NC(=S)NC(=O)Cc4ccc(Cl)cc4)cc3F)c2cc1C(=O)NCC(C)(C)O [Example 42, 4-(4-(3-(2-(4-Chlorophenyl)acetyl)thioureido)-2-fluorophenoxy)-N-(2-hydroxy-2-methylpropyl)-7-methoxyquinoline-6-carboxamide]
	7.14	COc1cc2nccc(Oc3ccc(NC(=S)NC(=O)Cc4ccccc4)cc3F)c2cc1C(=O)NCC1(O)CCCCC1 [Example 25, 4-(2-Fluoro-4-(3-(2-phenylacetyl)thioureido)phenoxy)-N-((1-hydroxycyclohexyl)methyl)-7-methoxyquinoline-6-carboxamide]
	6.63	COc1cc2nccc(Oc3ccc(NC(=S)NC(=O)Cc4ccccc4)cc3F)c2cc1C(=O)N[C@H](CO)c1ccccc1 [Example 29, (S)-4-(2-Fluoro-4-(3-(2-phenylacetyl)thioureido)phenoxy)-N-(2-hydroxy-1-phenylethyl)-7-methoxyquinoline-6-carboxamide]
7.47		CC[C@@H](CO)NC(=O)c1cc2c(Oc3ccc(NC(=S)NC(=O)Cc4cccc(F)c4)cc3F)ccnc2cc1OC [Example 41, (S)-4-(2-Fluoro-4-(3-(2-(3-fluorophenyl)acetyl)thioureido)phenoxy)-N-(1-hydroxybutan-2-yl)-7-methoxyquinoline-6-carboxamide]
	7.52	COc1cc2nccc(Oc3ccc(NC(=S)NC(=O)Cc4ccccc4)cc3F)c2cc1C(=O)NCC(=O)N1CCCC1 [Example 17, 4-(2-Fluoro-4-(3-(2-phenylacetyl)thioureido)phenoxy)-7-methoxy-N-(2-oxo-2-(pyrrolidin-1-yl)ethyl)quinoline-6-carboxamide]
	7.03	COc1cc2nccc(Oc3ccc(NC(=S)NC(=O)Cc4ccccc4)cc3F)c2cc1C(=O)Nc1ccccc1C [Example 28, 4-(2-Fluoro-4-(3-(2-phenylacetyl)thioureido)phenoxy)-7-methoxy-N-o-tolylquinoline-6-carboxamide]
7.30		CC[C@@H](CO)NC(=O)c1cc2c(Oc3ccc(NC(=S)NC(=O)Cc4ccc(Cl)cc4)cc3F)ccnc2cc1OC [Example 43, (S)-4-(4-(3-(2-(4-Chlorophenyl)acetyl)thioureido)-2-fluorophenoxy)-N-(1-hydroxybutan-2-yl)-7-methoxyquinoline-6-carboxamide]
7.21		CNC(=O)c1cc2c(Oc3ccc(NC(=S)NC(=O)Cc4ccccc4)c(F)c3)ccnc2cc1OC [Example 49, 4-(3-Fluoro-4-(3-(2-phenylacetyl)thioureido)phenoxy)-7-methoxy-N-methylquinoline-6-carboxamide]
	7.40	COc1cc2nccc(Oc3ccc(NC(=S)NC(=O)Cc4ccccc4)cc3F)c2cc1C(=O)NCC(O)c1nnn(C)n1 (stereo not drawn) [Example 30, 4-(2-Fluoro-4-(3-(2-phenylacetyl)thioureido)phenoxy)-N-(2-hydroxy-2-(2-methyl-2H-tetrazol-5-yl)ethyl)-7-methoxyquinoline-6-carboxamide]
	6.87	COc1cc2nccc(Oc3ccc(NC(=S)NC(=O)Cc4ccccc4)cc3F)c2cc1C(=O)N1CCC(N2CCCC2)CC1 [Example 51, N-(3-Fluoro-4-(7-methoxy-6-(4-(pyrrolidin-1-yl)piperidine-1-carbonyl)quinolin-4-yloxy)phenylcarbamothioyl)-2-phenylacetamide]
	6.52	COc1cc2nccc(Oc3ccc(NC(=S)NC(=O)Cc4ccccc4)cc3F)c2cc1C(=O)NC1CCN(C(C)=O)CC1 [Example 18, N-(1-Acetylpiperidin-4-yl)-4-(2-fluoro-4-(3-(2-phenylacetyl)thioureido)phenoxy)-7-methoxyquinoline-6-carboxamide]
	6.60	CCC(O)CNC(=O)c1cc2c(Oc3ccc(NC(=S)NC(=O)Cc4ccc(F)cc4)cc3F)ccnc2cc1OC (stereo not drawn) [Example 23, 4-(2-Fluoro-4-(3-(2-(4-fluorophenyl)acetyl)thioureido)phenoxy)-N-(2-hydroxybutyl)-7-methoxyquinoline-6-carboxamide]
	6.85	COc1cc2nccc(Oc3ccc(NC(=S)NC(=O)Cc4ccccc4)cc3F)c2cc1C(=O)N1CCC(O)C1 (stereo not drawn) [Example 52, N-(3-Fluoro-4-(6-(3-hydroxypyrrolidine-1-carbonyl)-7-methoxyquinolin-4-yloxy)phenylcarbamothioyl)-2-phenylacetamide]
	6.90	COc1cc2nccc(Oc3ccc(NC(=S)NC(=O)Cc4ccccc4)cc3F)c2cc1C(=O)NCC1(O)CCOCC1 [Example 26, 4-(2-Fluoro-4-(3-(2-phenylacetyl)thioureido)phenoxy)-N-((4-hydroxytetrahydro-2H-pyran-4-yl)methyl)-7-methoxyquinoline-6-carboxamide]

Further lines, the compound ahead of its results:

Structure (SMILES)	pIC50 (c-Met [1])	pIC50 (c-Met [2])
COc1cc2nccc(Oc3ccc(NC(=S)NC(=O)Cc4ccccc4)cc3F)c2cc1C(=O)NCCN1CCOCC1 [Example 9, 4-(2-Fluoro-4-(3-(2-phenylacetyl)thioureido)phenoxy)-7-methoxy-N-(2-morpholinoethyl)quinoline-6-carboxamide]		6.99
COc1cc2nccc(Oc3ccc(NC(=S)NC(=O)Cc4ccccc4)cc3F)c2cc1C(=O)NCc1cccnc1 [Example 4, 4-(2-Fluoro-4-(3-(2-phenylacetyl)thioureido)phenoxy)-7-methoxy-N-(pyridin-3-ylmethyl)quinoline-6-carboxamide]		6.85
COc1cc2nccc(Oc3ccc(NC(=S)NC(=O)Cc4ccccc4)cc3F)c2cc1C(=O)NC1CCCCNC1=O (stereo not drawn) [Example 16, 4-(2-Fluoro-4-(3-(2-phenylacetyl)thioureido)phenoxy)-7-methoxy-N-(2-oxoazepan-3-yl)quinoline-6-carboxamide]		6.75
COc1cc2nccc(Oc3ccc(NC(=S)NC(=O)Cc4ccccc4)cc3F)c2cc1C(=O)NC(CO)CO [Example 12, N-(1,3-Dihydroxypropan-2-yl)-4-(2-fluoro-4-(3-(2-phenylacetyl)thioureido)phenoxy)-7-methoxyquinoline-6-carboxamide]		7.28
CCN(CC)CCNC(=O)c1cc2c(Oc3ccc(NC(=S)NC(=O)Cc4ccccc4)cc3F)ccnc2cc1OC [Example 8, N-(2-(Diethylamino)ethyl)-4-(2-fluoro-4-(3-(2-phenylacetyl)thioureido)phenoxy)-7-methoxyquinoline-6-carboxamide]		6.97
COc1cc2nccc(Oc3ccc(NC(=S)NC(=O)Cc4ccccc4)cc3F)c2cc1C(=O)NCCCOC(C)C [Example 1, 4-(2-Fluoro-4-(3-(2-phenylacetyl)thioureido)phenoxy)-N-(3-isopropyloxypropyl)-7-methoxyquinoline-6-carboxamide]		6.68
COc1cc2nccc(Oc3ccc(NC(=S)NC(=O)Cc4ccccc4)cc3F)c2cc1C(=O)NCCNC(C)=O [Example 11, N-(2-Acetamidoethyl)-4-(2-fluoro-4-(3-(2-phenylacetyl)thioureido)phenoxy)-7-methoxyquinoline-6-carboxamide]		6.84
COc1cc2nccc(Oc3ccc(NC(=S)NC(=O)Cc4ccccc4)cc3F)c2cc1C(=O)NC1CCNCC1 [Example 14, 4-(2-Fluoro-4-(3-(2-phenylacetyl)thioureido)phenoxy)-7-methoxy-N-(piperidin-4-yl)quinoline-6-carboxamide dihydrochloride]		6.80
COc1cc2nccc(Oc3ccc(NC(=S)NC(=O)Cc4ccccc4)cc3F)c2cc1C(=O)NCCOCCO [Example 10, 4-(2-Fluoro-4-(3-(2-phenylacetyl)thioureido)phenoxy)-N-(2-(2-hydroxyethoxy)ethyl)-7-methoxyquinoline-6-carboxamide]		7.17
CNC(=O)c1cc2c(Oc3ccc(NC(=S)NC(=O)Cc4ccccc4)cc3F)ccnc2cc1OC [Example 6, 4-(2-Fluoro-4-(3-(2-phenylacetyl)thioureido)phenoxy)-7-methoxy-N-methylquinoline-6-carboxamide]		6.98
COCCNC(=O)c1cc2c(Oc3ccc(NC(=S)NC(=O)Cc4ccccc4)cc3F)ccnc2cc1OC [Example 7, 4-(2-Fluoro-4-(3-(2-phenylacetyl)thioureido)phenoxy)-7-methoxy-N-(methoxyethyl)quinoline-6-carboxamide]		7.30
COc1cc2nccc(Oc3ccc(NC(=S)NC(=O)Cc4ccccc4)cc3F)c2cc1C(=O)NCC(O)CO (stereo not drawn) [Example 3, N-(2,3-Dihydroxypropyl)-4-(2-fluoro-4-(3-(2-phenylacetyl)thioureido)phenoxy)-7-methoxyquinoline-6-carboxamide]		7.21
COc1cc2nccc(Oc3ccc(NC(=S)NC(=O)Cc4ccccc4)cc3F)c2cc1C(=O)NCC1COC(C)(C)O1 (stereo not drawn) [Example 2, N-((2,2-Dimethyl-1,3-dioxolan-4-yl)methyl)-4-(2-fluoro-4-(3-(2-phenylacetyl)thioureido)phenoxy)-7-methoxyquinoline-6-carboxamide]		6.78
